In PubChem BioAssay (NCI):
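Step 1: Grow cells in 96-well plates. Step 2: Expose to compound for 48 hours at 5 concentrations. Step 3: Interpolate endpoints linearly; if unreached, use highest concentration. Abbreviation: GI50, concentration required for 50% inhibition of growth. TGI denotes the concentration required for complete inhibition of growth.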 Where a SMILES comes first, the peptide text is derived from it.

How the values were obtained:
Assay in all cases: NCI tumour cell line growth inhibition, 48 h
786-0 renal = tested on: 786-0 renal
A549 NSCLC = tested on: A549 NSCLC
ACHN renal = tested on: ACHN renal
DU-145 prostate = tested on: DU-145 prostate
HCT-116 colon = tested on: HCT-116 colon
HL-60(TB) leukemia = tested on: HL-60(TB) leukemia
HS 578T breast = tested on: HS 578T breast
IGROV1 ovarian = tested on: IGROV1 ovarian
K-562 leukemia = tested on: K-562 leukemia
M14 melanoma = tested on: M14 melanoma
MCF7 breast = tested on: MCF7 breast
MDA-N = tested on: MDA-N
NCI-H226 lung = tested on: NCI-H226 lung
SF-295 CNS = tested on: SF-295 CNS
UACC-257 melanoma = tested on: UACC-257 melanoma
UO-31 renal = tested on: UO-31 renal
RXF 393 renal = tested on: RXF 393 renal
SK-OV-3 ovarian = tested on: SK-OV-3 ovarian

O=c1c(O)c(-c2ccc(O)cc2O)oc2cc(O)cc(O)c12
TGI (786-0 renal): > 100 µM
TGI (A549 NSCLC): > 100 µM
TGI (ACHN renal): > 100 µM
TGI (DU-145 prostate): > 100 µM
TGI (HCT-116 colon): > 100 µM
TGI (HL-60(TB) leukemia): > 100 µM
TGI (HS 578T breast): > 100 µM
TGI (IGROV1 ovarian): > 100 µM
TGI (K-562 leukemia): > 100 µM
TGI (M14 melanoma): > 100 µM
TGI (MCF7 breast): > 100 µM
TGI (MDA-N): > 100 µM
TGI (NCI-H226 lung): > 100 µM
TGI (SF-295 CNS): > 100 µM
TGI (UACC-257 melanoma): > 100 µM
TGI (UO-31 renal): > 100 µM

CC1NC(=O)CNC(=O)CNC(=O)C(Cc2ccc(O)cc2)NC(=O)C(C(C)C)NC(=O)C(C)NC1=O (stereo not drawn) (cyclo(GGAAVY); configuration not given here)
TGI (A549 NSCLC): > 100 µM
TGI (HCT-116 colon): > 100 µM
TGI (HL-60(TB) leukemia): > 100 µM
TGI (IGROV1 ovarian): > 100 µM
GI50 (K-562 leukemia): > 100 µM
TGI (K-562 leukemia): > 100 µM
TGI (MCF7 breast): > 100 µM
TGI (NCI-H226 lung): > 100 µM
GI50 (RXF 393 renal): > 100 µM
TGI (RXF 393 renal): > 100 µM
TGI (SF-295 CNS): > 100 µM
TGI (SK-OV-3 ovarian): > 100 µM
TGI (UACC-257 melanoma): > 100 µM
TGI (UO-31 renal): > 100 µM

Cc1cc(-c2ccc(C(=O)O)[nH]2)on1
TGI (786-0 renal): > 100 µM
TGI (A549 NSCLC): > 100 µM
TGI (ACHN renal): > 100 µM
TGI (DU-145 prostate): > 100 µM
TGI (HCT-116 colon): > 100 µM
TGI (HS 578T breast): > 100 µM
TGI (IGROV1 ovarian): > 100 µM
TGI (K-562 leukemia): > 100 µM
TGI (M14 melanoma): > 100 µM
TGI (MCF7 breast): > 100 µM
TGI (MDA-N): 23.7 µM
TGI (RXF 393 renal): > 100 µM
TGI (SF-295 CNS): > 100 µM
TGI (SK-OV-3 ovarian): > 100 µM
TGI (UACC-257 melanoma): > 100 µM
TGI (UO-31 renal): > 100 µM

COc1ccc2c(c1)C(N)CC2=O (stereo not drawn)
TGI (786-0 renal): > 100 µM
TGI (A549 NSCLC): 38.2 µM
TGI (ACHN renal): > 100 µM
TGI (DU-145 prostate): > 100 µM
TGI (HCT-116 colon): > 100 µM
TGI (HS 578T breast): > 100 µM
TGI (IGROV1 ovarian): > 100 µM
TGI (K-562 leukemia): > 100 µM
TGI (M14 melanoma): > 100 µM
TGI (MCF7 breast): > 100 µM
TGI (NCI-H226 lung): > 100 µM
TGI (RXF 393 renal): 36.3 µM
TGI (SF-295 CNS): > 100 µM
TGI (SK-OV-3 ovarian): > 100 µM
TGI (UACC-257 melanoma): > 100 µM
TGI (UO-31 renal): > 100 µM

COc1c2c(c(OC)c3c1c(=O)c1ccccc1n3C)OCO2
TGI (786-0 renal): > 100 µM
TGI (A549 NSCLC): > 100 µM
TGI (ACHN renal): > 100 µM
TGI (DU-145 prostate): > 100 µM
TGI (HCT-116 colon): > 91.6 µM
TGI (HL-60(TB) leukemia): > 25.6 µM
TGI (HS 578T breast): > 100 µM
TGI (IGROV1 ovarian): > 100 µM
TGI (K-562 leukemia): > 100 µM
TGI (M14 melanoma): > 100 µM
TGI (MCF7 breast): > 100 µM
TGI (NCI-H226 lung): > 100 µM
TGI (RXF 393 renal): > 100 µM
TGI (SF-295 CNS): > 100 µM
TGI (SK-OV-3 ovarian): > 100 µM
TGI (UACC-257 melanoma): > 100 µM
TGI (UO-31 renal): > 100 µM

NC(=S)/N=C/c1c(O)c2ccccc2oc1=O
TGI (786-0 renal): > 100 µM
TGI (A549 NSCLC): > 100 µM
TGI (ACHN renal): > 100 µM
TGI (HCT-116 colon): > 100 µM
TGI (HL-60(TB) leukemia): > 100 µM
TGI (IGROV1 ovarian): > 100 µM
TGI (K-562 leukemia): > 100 µM
TGI (M14 melanoma): > 100 µM
TGI (NCI-H226 lung): > 100 µM
TGI (RXF 393 renal): 86.4 µM
TGI (SF-295 CNS): > 100 µM
TGI (SK-OV-3 ovarian): > 100 µM
TGI (UACC-257 melanoma): > 100 µM
TGI (UO-31 renal): > 100 µM

CC(C(=O)N1C(=O)N(C(=O)C(C)C(O)c2ccccc2)C(c2ccccc2)C1c1ccccc1)C(O)c1ccccc1 (stereo not drawn)
TGI (786-0 renal): > 100 µM
TGI (A549 NSCLC): > 100 µM
TGI (ACHN renal): > 100 µM
TGI (DU-145 prostate): > 100 µM
TGI (HCT-116 colon): 26.7 µM
TGI (HL-60(TB) leukemia): 6.79 µM
TGI (HS 578T breast): 95.1 µM
TGI (IGROV1 ovarian): > 100 µM
TGI (K-562 leukemia): 41.6 µM
TGI (M14 melanoma): 33.4 µM
TGI (MCF7 breast): > 100 µM
TGI (NCI-H226 lung): 34.3 µM
TGI (RXF 393 renal): 28.1 µM
TGI (SF-295 CNS): 10.8 µM
TGI (UO-31 renal): 41.1 µM
